Holding throughout (format): functional
Holding throughout (settings): read-out: IZ

Assay [1] relates to Candida albicans. As to the kind of experiment: Antifungal activity against Candida albicans ATCC 10231 at 200 ug/ml by cup-plate method.
In assay [2] the test system is Candida albicans. Kind of assay: Antifungal activity against Candida albicans ATCC 10231 at 100 ug/ml by cup-plate method.
The test system of assay [3] is Bacillus subtilis. As to the kind of experiment: Antibacterial activity against Bacillus subtilis ATCC 6633 at 200 ug/ml by cup-plate method.
The subject of assay [4] is Bacillus subtilis. As to the kind of experiment: Antibacterial activity against Bacillus subtilis ATCC 6633 at 100 ug/ml by cup-plate method.
The subject of assay [5] is Staphylococcus aureus. Kind of assay: Antibacterial activity against Staphylococcus aureus ATCC 9144 at 200 ug/ml by cup-plate method.
The test system of assay [6] is Staphylococcus aureus. Kind of assay: Antibacterial activity against Staphylococcus aureus ATCC 9144 at 100 ug/ml by cup-plate method.
The subject of assay [7] is Escherichia coli. As to the kind of experiment: Antibacterial activity against Escherichia coli ATCC 25922 at 200 ug/ml by cup-plate method.
Assay [8] concerns Escherichia coli. As to the kind of experiment: Antibacterial activity against Escherichia coli ATCC 25922 at 100 ug/ml by cup-plate method.
Assay [9] concerns Pseudomonas aeruginosa. Kind of assay: Antibacterial activity against Pseudomonas aeruginosa ATCC 9027 at 200 ug/ml by cup-plate method.
Assay [10] relates to Pseudomonas aeruginosa. Kind of assay: Antibacterial activity against Pseudomonas aeruginosa ATCC 9027 at 100 ug/ml by cup-plate method.

Molecules are shown by their SMILES.

For the molecule `Cc1ccc2nc(Nc3ncccc3C(=O)N3CCN(CCO)CC3)sc2c1`, the zone of inhibition at 200 µg/mL with Candida albicans [1] was determined as 5 mm; in the assay with Bacillus subtilis [3], 0 mm; in the assay on Staphylococcus aureus [5], 3 mm; with Escherichia coli [7], 6 mm; in the assay on Pseudomonas aeruginosa [9] it was 0 mm. Further, the zone of inhibition at 100 µg/mL stood at 2 mm in the assay on Candida albicans [2]; 0 mm in the assay with Bacillus subtilis [4]; 0 mm in the assay with Staphylococcus aureus [6]; 0 mm in the assay with Escherichia coli [8]; 0 mm in the assay with Pseudomonas aeruginosa [10].
Regarding `O=C(c1cccnc1Nc1nc2ccc([N+](=O)[O-])cc2s1)N1CCN(CCO)CC1`, the zone of inhibition at 200 µg/mL turned out to be 2 mm in the assay with Candida albicans [1]; 6 mm in the assay with Bacillus subtilis [3]; 9 mm in the assay with Staphylococcus aureus [5]; 5 mm with Escherichia coli [7]; 8 mm with Pseudomonas aeruginosa [9]. Also, the zone of inhibition at 100 µg/mL in the assay with Candida albicans [2] came out at 0 mm; with Bacillus subtilis [4], 0 mm; in the assay with Staphylococcus aureus [6], 8 mm; with Escherichia coli [8] it was 0 mm; in the assay with Pseudomonas aeruginosa [10], 6 mm.
With `O=C(c1cccnc1Nc1nc2c([N+](=O)[O-])cccc2s1)N1CCNC(Cl)C1Cl` (stereo not given), the zone of inhibition at 200 µg/mL was 4 mm in the assay with Candida albicans [1]; 10 mm with Bacillus subtilis [3]; 10 mm with Staphylococcus aureus [5]; 10 mm with Escherichia coli [7]; 9 mm in the assay on Pseudomonas aeruginosa [9]. Besides, the zone of inhibition at 100 µg/mL was found to be 2 mm in the assay with Candida albicans [2]; 5 mm with Bacillus subtilis [4]; 8 mm in the assay with Staphylococcus aureus [6]; 9 mm in the assay with Escherichia coli [8]; 8 mm in the assay with Pseudomonas aeruginosa [10].
For `O=C(c1cccnc1Nc1nc2c([N+](=O)[O-])cccc2s1)N1CCN(CCO)CC1`, the zone of inhibition at 200 µg/mL with Candida albicans [1] was 7 mm; in the assay with Bacillus subtilis [3], 9 mm; in the assay on Staphylococcus aureus [5], 12 mm; in the assay with Escherichia coli [7], 9 mm; with Pseudomonas aeruginosa [9] it was 11 mm. Moreover, the zone of inhibition at 100 µg/mL with Candida albicans [2] came to 4 mm; in the assay with Bacillus subtilis [4], 8 mm; in the assay on Staphylococcus aureus [6] it was 8 mm; in the assay on Escherichia coli [8], 5 mm; with Pseudomonas aeruginosa [10] it was 8 mm.
As for `O=C(c1cccnc1Nc1nc2cc([N+](=O)[O-])ccc2s1)N1CCNC(Cl)C1Cl` (stereo not given), the zone of inhibition at 200 µg/mL amounted to 4 mm with Candida albicans [1]; 7 mm in the assay on Bacillus subtilis [3]; 9 mm in the assay with Staphylococcus aureus [5]; 5 mm in the assay on Escherichia coli [7]; 6 mm with Pseudomonas aeruginosa [9]. For the same molecule, the zone of inhibition at 100 µg/mL in the assay with Candida albicans [2] worked out at 1 mm; in the assay with Bacillus subtilis [4] it was 8 mm; with Staphylococcus aureus [6] it was 6 mm; in the assay on Escherichia coli [8], 4 mm; with Pseudomonas aeruginosa [10] it was 5 mm.
With `Cc1ccc2sc(Nc3ncccc3C(=O)N3CCNC(Cl)C3Cl)nc2c1` (stereo not given), the zone of inhibition at 200 µg/mL with Candida albicans [1] turned out to be 3 mm; in the assay on Bacillus subtilis [3] it was 7 mm; with Staphylococcus aureus [5] it was 10 mm; with Escherichia coli [7], 7 mm; in the assay on Pseudomonas aeruginosa [9], 8 mm. In addition, the zone of inhibition at 100 µg/mL in the assay on Candida albicans [2] amounted to 2 mm; in the assay on Bacillus subtilis [4] it was 7 mm; with Staphylococcus aureus [6] it was 8 mm; with Escherichia coli [8], 5 mm; in the assay on Pseudomonas aeruginosa [10], 6 mm.
Take `O=C(c1cccnc1Nc1nc2ccccc2s1)N1CCNC(Cl)C1Cl` (stereo not given): the zone of inhibition at 200 µg/mL in the assay with Candida albicans [1] was determined as 5 mm; with Bacillus subtilis [3], 7 mm; in the assay with Staphylococcus aureus [5], 7 mm; in the assay on Escherichia coli [7], 8 mm; in the assay on Pseudomonas aeruginosa [9] it was 5 mm. The zone of inhibition at 100 µg/mL came to 3 mm in the assay on Candida albicans [2]; 6 mm in the assay on Bacillus subtilis [4]; 5 mm with Staphylococcus aureus [6]; 7 mm in the assay on Escherichia coli [8]; 4 mm in the assay on Pseudomonas aeruginosa [10].
Take `O=C(c1cccnc1Nc1nc2cc(Cl)ccc2s1)N1CCN(CCO)CC1`: the zone of inhibition at 200 µg/mL in the assay on Candida albicans [1] is 4 mm; in the assay with Bacillus subtilis [3], 5 mm; with Staphylococcus aureus [5] it was 0 mm; in the assay on Escherichia coli [7] it was 5 mm; in the assay on Pseudomonas aeruginosa [9] it was 3 mm. Also, the zone of inhibition at 100 µg/mL with Candida albicans [2] was 3 mm; with Bacillus subtilis [4] it was 5 mm; in the assay on Staphylococcus aureus [6] it was 0 mm; with Escherichia coli [8], 5 mm; in the assay on Pseudomonas aeruginosa [10], 0 mm.

Source of the values: ChEMBL document CHEMBL3046819, “Synthesis and antimicrobial activity of new pyridine derivatives-I” (2011).
